Data set [1] concerns hemorrhagic transformation induced by thrombolytic drug. Briefly: Rat middle cerebral artery autologous thrombosis with rt-PA thrombolysis, cerebral hemorrhage volume. The format is in vivo. How it is done: A rat model of middle cerebral artery autologous thrombosis was prepared according to the following method: rats were anesthetized by intraperitoneal injection of 10% […] at 350 mg/kg body weight and fixed on an operating table in a supine position, skin of the rats was routinely disinfected according to aseptic operation procedures, and draping was performed. An incision about 3.0-cm-long was taken from the skin in the middle of the neck, the muscle and the subcutaneous tissue were bluntly separated, the right bilateral common carotid arteries, external carotid arteries, and internal carotid arteries were separated to avoid damage to the vagus nerve, the internal carotid arteries were separated to the skull base, and the external carotid arteries were ligated at the bifurcation of the bilateral common carotid arteries. 0.1 ml of arterial blood from the femoral artery of the rat was taken using a 1-ml syringe, 4 U of thrombin was added, the materials were uniformly mixed and stood for 8-10 min, when the blood was coagulated, and the coagulated blood was injected into a 24 G venous indwelling needle to prepare a thrombus about 1-cm-long followed by a syringe containing 1-2 ml of normal saline. […]
Another 4 healthy rats were taken, sacrificed by excessive anesthesia, and subjected to cardiac perfusion. […] cerebral hemisphere tissues were taken, 0, 0.5, 1, 2, 4, 8, 16, 32, and 50 μL of arterial blood of male SD rats was successively added to each hemisphere tissue, PBS at a pH of 7.4 was added to a total volume of 3 ml, the tissue was homogenized for 30 s and ultrasonically lysed, and centrifugation was performed at 13,000 r/min and 4° C. for 30 min 0.8 mL of Drabkin's reagent was mixed with 0.2 mL of a supernatant of each sample, an obtained mixture was placed in a dark place at a room temperature for 10 min, and an absorbance at a wavelength of 540 nm (absorbance of sample not containing blood was set to 0) was measured. The absorbance was set as a Y-axis and the blood volume in each sample was set as an X-axis to draw a standard curve. […]

For data set [2], the system named is cerebral infarction. Briefly: Same rt-PA thrombolysis model, cerebral infarction volume (rate). The format is in vivo, rats. The settings on record: rt-PA 5 mg/kg alone, compared with the model group. How it is done: An incision about 3.0-cm-long was taken from the skin in the middle of the neck, the muscle and the subcutaneous tissue were bluntly separated, the right bilateral common carotid arteries, external carotid arteries, and internal carotid arteries were separated to avoid damage to the vagus nerve, the internal carotid arteries were separated to the skull base, and the external carotid arteries were ligated at the bifurcation of the bilateral common carotid arteries. 0.1 ml of arterial blood from the femoral artery of the rat was taken using a 1-ml syringe, 4 U of thrombin was added, the materials were uniformly mixed and stood for 8-10 min, when the blood was coagulated, and the coagulated blood was injected into a 24 G venous indwelling needle to prepare a thrombus about 1-cm-long followed by a syringe containing 1-2 ml of normal saline. […] Infarct volume=non-ischemic side hemisphere volume-ischemic side hemisphere non-infarct area volume, and an infarct volume ratio was expressed as the percentage (%) of the infarct volume to the non-ischemic side hemisphere volume.

Data set [3] deals with myocardial infarction. Briefly: Isoproterenol myocardial infarction rats, electrocardiogram. It is filed as in vivo, Wistar male rats. The following applies: rt-PA 5 mg/kg femoral vein, compared with the model group. How it is done:
60 Wistar male rats (SPF grade), weighing 220-260 g, were randomly divided into a myocardial infarction modeling group and a control group according to a random number table, with 12 rats in the control group and 48 rats in the model group. The rats were conventionally fed in separate cages with 4 rats per cage. After a normal electrocardiogram was traced, the rats in the myocardial infarction modeling group were subcutaneously injected with 150 mg·kg^−1·d^−1 of isoproterenol (ISO) in a volume of 0.2 mL/100 g every other 24 h for 2 consecutive days. The rats in the control group were subcutaneously injected with a same amount (0.2 mL/100 g) of normal saline according the same method for 2 consecutive days. The electrocardiogram was monitored 24 h after the second subcutaneous injection of the isoproterenol. […] The ST segment elevation of greater than 0.2 mV in lead II or the formation of Q wave became the standard for myocardial infarction. […]
The rats were anesthetized by inhalation of ether. […] The electrocardiogram of the rat was monitored using the limb leads according to right upper limb-red, left upper limb-yellow, left lower limb-green, and right lower limb-black, an electrocardiograph was turned on at a paper speed of 50 mm/s and a voltage of 1 mv, and the animals were returned to the cages after the electrocardiogram.

Data set [4] concerns myocardial infarction. As to the kind of experiment: Isoproterenol myocardial infarction rats, heart weight / body weight. It is filed as in vivo, Wistar male rats. The following applies: rt-PA 5 mg/kg femoral vein. The method, then: 60 Wistar male rats (SPF grade), weighing 220-260 g, were randomly divided into a myocardial infarction modeling group and a control group according to a random number table, with 12 rats in the control group and 48 rats in the model group. The rats were conventionally fed in separate cages with 4 rats per cage. After a normal electrocardiogram was traced, the rats in the myocardial infarction modeling group were subcutaneously injected with 150 mg·kg^−1·d^−1 of isoproterenol (ISO) in a volume of 0.2 mL/100 g every other 24 h for 2 consecutive days. The rats in the control group were subcutaneously injected with a same amount (0.2 mL/100 g) of normal saline according the same method for 2 consecutive days. The electrocardiogram was monitored 24 h after the second subcutaneous injection of the isoproterenol. […] The ST segment elevation of greater than 0.2 mV in lead II or the formation of Q wave became the standard for myocardial infarction.
A total of 36 modeled rats were selected from the modeling group and randomly divided into a model group, a thrombolysis group and a thrombolytic drug+icaritin group according to the random number table. […]

Turning to “rt-PA: alteplase (rt-PA), thrombolytic drug, 5 mg/kg via the femoral vein”, the Cerebral hemorrhage volume in data set [1] (rt-PA 5 mg/kg femoral vein 3 h after modeling, 3 h after thrombolysis) is listed as 6.43 ± 0.89; in data set [1] (rt-PA 5 mg/kg femoral vein, 6 h after thrombolysis), 9.78 ± 1.01; in data set [1] (rt-PA 5 mg/kg femoral vein, 24 h after thrombolysis), 15.32 ± 2.01. Besides, the “Pale white area of the infarcted area” value in data set [2] was “significantly decreased”. Also, in data set [3], the “Pathological Q waves in electrocardiogram” value is “disappeared”. Further, in data set [4], the Whole heart weight is 702.3 ± 10.8 mg. The Heart weight/body weight in data set [4] (model group 4.0, control 2.6) was 2.8^$ $ mg/g.
